Data taken from US20240270698A2, “NOVEL PYRIMIDINE DERIVATIVE AND USE THEREOF” (KOREA RESEARCH INSTITUTE OF CHEMICAL TECHNOLOGY, priority 2019, published 2024).

Legend:
[1] = target: T1, human recombinant LRRK2 protein (Homo sapiens, UniProt Q5S007); experiment: LRRK2 kinase activity assay (Eurofins, gamma-33P-ATP, filtermat scintillation counting); assay type: biochemical; conditions: human recombinant LRRK2, 40 minutes at room temperature
T1 construct: purchased Eurofins
Experimental: (§1) Compounds 1 to 119 synthesized in Example 1 according to the present disclosure were assayed for inhibitory activity against MLK3/LRRK2 enzymes and anticancer activity against HepG2/HS746T cancer cells, and the results are summarized in Table 1, below.
(§2) Inhibitory activity against MLK3 and LRRK2 enzymes was evaluated in Eurofins. In brief, human recombinant MLK3 protein was mixed with the compounds in a reaction buffer (8 mM MOPS (pH 7.0), 0.2 mM EDTA, 0.33 mg/mL myelin basic protein, 5 mM DTT) to which a mixture of 10 mM magnesium acetate and gamma-33P-ATP was then added before incubation at room temperature for 120 minutes. Afterward, the reaction was terminated with 0.5% phosphoric acid. Ten μL of the total mixture was spotted onto a P30 filtermat which was then washed four times for 4 minutes with 0.425% phosphoric acid and once in methanol prior to scintillation counting. Values for the activity of MLK3 were expressed as % of the control. For the activity of LRRK2, human recombinant LRRK2 protein was mixed with the compounds in a reaction buffer (50 mM HEPES (pH 8.0), 0.2 mM EDTA, 0.01% Brij-35, 1% (w/v) BSA, 5 mM DTT, 250 uM substrate peptide RLGRDKYKTLRQIRQ) and then reacted with a mixture of 10 mM magnesium acetate and gamma-33P-ATP at room temperature for 40 minutes. Afterward, the reaction was terminated with 0.5% phosphoric acid. Ten μL of the total mixture was spotted onto a P30 filtermat which was then washed four times for 4 minutes with 0.425% phosphoric acid and once in methanol prior to scintillation counting. Values for the activity of LRRK2 were expressed as % of the control.

HS746T cancer cells = experiment: Anticancer activity, cell viability by CCK-8, HS746T; assay type: cell-based; conditions: 72 hours
Experimental: (§3) Compounds 1 to 119 synthesized in Example 1 according to the present disclosure were assayed for inhibitory activity against MLK3/LRRK2 enzymes and anticancer activity against HepG2/H[…] cancer cells, and the results are summarized in Table 1, below. Assay for anticancer activity was conducted as follows. HepG2 and H[…] cancer cells were purchased from the Korean Cell Line Bank and cultured according to the instruction provided thereby. One hundred μL of a culture of the cells were seeded at a density of 4,000 cells/well into 96-well plates. After 24 hours, the cells were treated with the compounds for 72 hours. Then, cell viability was assayed using CCK-8 and expressed as % of the control.

HepG2 cancer cells = experiment: Anticancer activity, cell viability by CCK-8, HepG2; assay type: cell-based; conditions: HepG2, 10 μM, 72 hours
Experimental: as §3

[2] = target: T2, human recombinant MLK3 protein (Homo sapiens, UniProt Q16584); experiment: MLK3 kinase activity assay (Eurofins, gamma-33P-ATP, filtermat scintillation counting); assay type: biochemical; conditions: human recombinant MLK3, 120 minutes at room temperature
T2 construct: purchased Eurofins
T2 sequence (Q16584 whole entry): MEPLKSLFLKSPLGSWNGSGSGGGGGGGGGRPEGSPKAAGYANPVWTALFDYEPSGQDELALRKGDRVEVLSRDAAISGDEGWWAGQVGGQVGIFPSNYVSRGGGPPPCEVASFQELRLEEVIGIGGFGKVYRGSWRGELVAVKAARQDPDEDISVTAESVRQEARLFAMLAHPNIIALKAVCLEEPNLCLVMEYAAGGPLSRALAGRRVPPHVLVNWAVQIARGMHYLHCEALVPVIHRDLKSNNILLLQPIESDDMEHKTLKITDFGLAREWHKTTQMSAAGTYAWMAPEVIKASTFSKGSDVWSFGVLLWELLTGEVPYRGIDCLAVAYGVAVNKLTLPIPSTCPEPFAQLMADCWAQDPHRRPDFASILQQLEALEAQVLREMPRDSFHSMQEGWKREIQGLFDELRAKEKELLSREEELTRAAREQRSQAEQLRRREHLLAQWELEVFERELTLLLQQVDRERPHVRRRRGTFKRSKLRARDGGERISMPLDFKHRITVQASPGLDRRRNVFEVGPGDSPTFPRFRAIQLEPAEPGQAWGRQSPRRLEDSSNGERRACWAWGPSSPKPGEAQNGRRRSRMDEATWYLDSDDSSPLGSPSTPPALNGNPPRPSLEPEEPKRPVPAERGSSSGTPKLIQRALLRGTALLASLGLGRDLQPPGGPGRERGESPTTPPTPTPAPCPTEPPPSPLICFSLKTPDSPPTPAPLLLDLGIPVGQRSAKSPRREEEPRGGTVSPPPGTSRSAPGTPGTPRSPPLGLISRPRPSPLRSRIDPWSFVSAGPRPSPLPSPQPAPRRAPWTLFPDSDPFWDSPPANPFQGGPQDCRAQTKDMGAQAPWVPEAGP
Experimental: as §1, §2

T1 sequence (Q5S007 whole entry): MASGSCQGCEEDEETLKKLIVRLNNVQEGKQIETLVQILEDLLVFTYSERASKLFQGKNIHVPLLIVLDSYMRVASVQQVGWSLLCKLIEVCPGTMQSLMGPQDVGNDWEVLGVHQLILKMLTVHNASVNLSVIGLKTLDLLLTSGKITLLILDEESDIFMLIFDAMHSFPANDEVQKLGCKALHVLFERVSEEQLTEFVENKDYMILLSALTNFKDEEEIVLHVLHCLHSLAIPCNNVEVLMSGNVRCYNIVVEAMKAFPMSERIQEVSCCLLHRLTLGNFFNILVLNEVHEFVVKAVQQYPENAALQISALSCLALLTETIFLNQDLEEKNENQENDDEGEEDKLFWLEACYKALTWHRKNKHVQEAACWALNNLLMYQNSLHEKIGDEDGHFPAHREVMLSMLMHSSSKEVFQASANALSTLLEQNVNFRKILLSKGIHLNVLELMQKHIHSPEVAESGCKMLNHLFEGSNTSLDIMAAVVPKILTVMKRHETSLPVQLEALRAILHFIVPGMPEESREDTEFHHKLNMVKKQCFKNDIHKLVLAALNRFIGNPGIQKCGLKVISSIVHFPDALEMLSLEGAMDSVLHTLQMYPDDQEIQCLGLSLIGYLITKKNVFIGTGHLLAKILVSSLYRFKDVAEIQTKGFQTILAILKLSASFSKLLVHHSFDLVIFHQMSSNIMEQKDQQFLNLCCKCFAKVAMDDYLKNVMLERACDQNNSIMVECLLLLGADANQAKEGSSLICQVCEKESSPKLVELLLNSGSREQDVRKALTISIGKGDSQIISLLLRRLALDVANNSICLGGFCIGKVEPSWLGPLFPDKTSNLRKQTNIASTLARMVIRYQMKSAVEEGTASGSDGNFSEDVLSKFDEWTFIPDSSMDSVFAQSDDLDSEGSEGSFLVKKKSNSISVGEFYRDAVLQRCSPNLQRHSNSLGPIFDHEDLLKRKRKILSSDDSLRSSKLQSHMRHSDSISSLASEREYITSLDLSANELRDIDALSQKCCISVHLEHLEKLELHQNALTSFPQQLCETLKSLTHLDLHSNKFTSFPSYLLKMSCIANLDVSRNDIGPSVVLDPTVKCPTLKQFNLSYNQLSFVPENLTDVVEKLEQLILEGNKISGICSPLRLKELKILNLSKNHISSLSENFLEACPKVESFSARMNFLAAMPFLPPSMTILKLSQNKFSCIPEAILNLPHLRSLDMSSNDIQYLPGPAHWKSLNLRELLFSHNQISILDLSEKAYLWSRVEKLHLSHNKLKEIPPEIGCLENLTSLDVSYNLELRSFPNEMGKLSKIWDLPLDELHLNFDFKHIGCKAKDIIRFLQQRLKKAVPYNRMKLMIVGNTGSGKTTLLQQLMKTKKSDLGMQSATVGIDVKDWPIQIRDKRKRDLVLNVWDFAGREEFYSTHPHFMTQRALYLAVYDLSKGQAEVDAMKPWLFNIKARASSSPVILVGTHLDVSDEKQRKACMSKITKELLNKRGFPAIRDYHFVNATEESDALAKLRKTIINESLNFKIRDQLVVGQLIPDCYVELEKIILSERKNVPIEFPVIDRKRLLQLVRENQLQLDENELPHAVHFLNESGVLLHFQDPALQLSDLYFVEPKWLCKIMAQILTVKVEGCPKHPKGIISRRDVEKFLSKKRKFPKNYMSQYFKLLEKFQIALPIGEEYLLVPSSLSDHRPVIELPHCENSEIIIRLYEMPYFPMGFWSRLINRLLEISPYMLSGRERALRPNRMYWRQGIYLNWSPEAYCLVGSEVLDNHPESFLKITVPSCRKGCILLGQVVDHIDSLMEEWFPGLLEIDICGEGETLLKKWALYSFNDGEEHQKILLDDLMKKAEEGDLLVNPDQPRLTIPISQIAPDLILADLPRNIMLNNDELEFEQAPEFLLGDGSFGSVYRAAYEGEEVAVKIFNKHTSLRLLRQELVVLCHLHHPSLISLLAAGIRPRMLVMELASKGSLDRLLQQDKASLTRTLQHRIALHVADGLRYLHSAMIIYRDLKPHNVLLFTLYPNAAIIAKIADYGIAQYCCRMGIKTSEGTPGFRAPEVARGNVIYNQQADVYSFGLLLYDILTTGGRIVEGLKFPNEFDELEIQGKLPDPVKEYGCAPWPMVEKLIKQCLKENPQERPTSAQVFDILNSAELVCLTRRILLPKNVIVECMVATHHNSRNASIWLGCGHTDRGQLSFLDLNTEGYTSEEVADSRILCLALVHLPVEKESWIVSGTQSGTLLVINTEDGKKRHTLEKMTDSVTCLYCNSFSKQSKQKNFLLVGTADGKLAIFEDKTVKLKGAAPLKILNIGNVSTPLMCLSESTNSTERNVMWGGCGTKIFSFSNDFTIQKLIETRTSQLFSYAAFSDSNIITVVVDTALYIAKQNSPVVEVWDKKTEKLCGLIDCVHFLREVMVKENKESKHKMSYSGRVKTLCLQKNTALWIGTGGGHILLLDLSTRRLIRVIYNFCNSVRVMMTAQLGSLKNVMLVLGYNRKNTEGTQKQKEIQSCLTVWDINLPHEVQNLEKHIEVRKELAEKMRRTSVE

SMILES: CC1(C)CCC(C)(C)c2cc(Nc3ncc(Cl)c(Nc4ccccc4P(C)(C)=O)n3)ccc21 [compound 7, (2-((5-Chloro-2-((5,5,8,8-tetramethyl-5,6,7,8-tetrahydronaphthalen-2-yl)amino)pyrimidin-4-yl)amino)phenyl)dimethylphosphine oxide]
- IC50 [1]: 100 to 1000 nM
- Cell viability (% of Con. 10 μM) HS746T (HS746T cancer cells): 103 % of Con.
- Cell viability (% of Con. 10 μM) HepG2 (HepG2 cancer cells): 75 % of Con.
- IC50 [2]: 100 to 1000 nM

SMILES: CP(C)(=O)c1ccccc1Nc1nc(N2CCc3c(N)cccc3C2)ncc1Cl [compound 9, (2-((2-(5-Amino-3,4-dihydroisoquinolin-2(1H)-yl)-5-chloropyrimidin-4-yl)amino)phenyl)dimethylphosphine oxide]
- IC50 [1]: > 1000 nM
- Cell viability (% of Con. 10 μM) HS746T (HS746T cancer cells): 104 % of Con.
- Cell viability (% of Con. 10 μM) HepG2 (HepG2 cancer cells): 110 % of Con.
- IC50 [2]: > 1000 nM

SMILES: Cc1cc(Nc2ncc(Cl)c(Nc3ccccc3P(C)(C)=O)n2)ccn1 [compound 10, (2-((5-Chloro-2-((2-methylpyridin-4-yl)amino)pyrimidin-4-yl)amino)phenyl)dimethylphosphine oxide]
- IC50 [1]: > 1000 nM
- Cell viability (% of Con. 10 μM) HS746T (HS746T cancer cells): 120 % of Con.
- Cell viability (% of Con. 10 μM) HepG2 (HepG2 cancer cells): 91 % of Con.
- IC50 [2]: > 1000 nM

SMILES: CP(C)(=O)c1ccccc1Nc1nc(Nc2ccc3ncsc3c2)ncc1Cl [compound 11, (2-((2-(Benzo[d]thiazol-6-ylamino)-5-chloropyrimidin-4-yl)amino)phenyl)dimethylphosphine oxide]
- IC50 [1]: 1 to 10 nM
- Cell viability (% of Con. 10 μM) HS746T (HS746T cancer cells): 27 % of Con.
- Cell viability (% of Con. 10 μM) HepG2 (HepG2 cancer cells): 28 % of Con.
- IC50 [2]: 1 to 10 nM

SMILES: CP(C)(=O)c1ccccc1Nc1nc(NCc2ccc(F)cc2)ncc1Cl [compound 12, (2-((5-Chloro-2-((4-fluorobenzyl)amino)pyrimidin-4-yl)amino)phenyl)dimethylphosphine oxide]
- IC50 [1]: > 1000 nM
- Cell viability (% of Con. 10 μM) HS746T (HS746T cancer cells): 97 % of Con.
- Cell viability (% of Con. 10 μM) HepG2 (HepG2 cancer cells): 85 % of Con.
- IC50 [2]: > 1000 nM

SMILES: CP(C)(=O)c1ccccc1Nc1nc(NCc2ccccc2)ncc1Cl [compound 14, (2-((2-(Benzylamino)-5-chloropyrimidin-4-yl)amino)phenyl) dimethylphosphine oxide]
- IC50 [1]: > 1000 nM
- Cell viability (% of Con. 10 μM) HS746T (HS746T cancer cells): 110 % of Con.
- Cell viability (% of Con. 10 μM) HepG2 (HepG2 cancer cells): 108 % of Con.
- IC50 [2]: > 1000 nM

SMILES: CP(C)(=O)c1ccccc1Nc1nc(Nc2ccncc2)ncc1Cl [compound 15, (2-((5-Chloro-2-(pyridin-4-ylamino)pyrimidin-4-yl)amino)phenyl) dimethylphosphine oxide]
- IC50 [1]: > 1000 nM
- Cell viability (% of Con. 10 μM) HS746T (HS746T cancer cells): 110 % of Con.
- Cell viability (% of Con. 10 μM) HepG2 (HepG2 cancer cells): 116 % of Con.
- IC50 [2]: > 1000 nM

SMILES: CP(C)(=O)c1ccccc1Nc1nc(NC2CCCCC2)ncc1Cl [compound 16, (2-((5-Chloro-2-(cyclohexylamino)pyrimidin-4-yl)amino)phenyl) dimethylphosphine oxide]
- IC50 [1]: > 1000 nM
- Cell viability (% of Con. 10 μM) HS746T (HS746T cancer cells): 64 % of Con.
- Cell viability (% of Con. 10 μM) HepG2 (HepG2 cancer cells): 82 % of Con.
- IC50 [2]: > 1000 nM

SMILES: Cc1nc2ccc(Nc3ncc(Cl)c(Nc4ccccc4P(C)(C)=O)n3)cc2s1 [compound 17, (2-((5-Chloro-2-((2-methylbenzo[d]thiazol-6-yl)amino)pyrimidin-4-yl)amino)phenyl)dimethylphosphine oxide]
- IC50 [1]: 1 to 10 nM
- Cell viability (% of Con. 10 μM) HS746T (HS746T cancer cells): 17 % of Con.
- Cell viability (% of Con. 10 μM) HepG2 (HepG2 cancer cells): 35 % of Con.
- IC50 [2]: 1 to 10 nM

SMILES: CP(C)(=O)c1ccccc1Nc1nc(Nc2ccc3ncccc3c2)ncc1Cl [compound 18, (2-((5-Chloro-2-(quinolin-6-ylamino)pyrimidin-4-yl)amino)phenyl) dimethylphosphine oxide]
- IC50 [1]: 1 to 10 nM
- Cell viability (% of Con. 10 μM) HS746T (HS746T cancer cells): 16 % of Con.
- Cell viability (% of Con. 10 μM) HepG2 (HepG2 cancer cells): 32 % of Con.
- IC50 [2]: 10 to 100 nM

SMILES: CP(C)(=O)c1ccccc1Nc1nc(Nc2cnc3ccccc3c2)ncc1Cl [compound 19, (2-((5-Chloro-2-(quinolin-3-ylamino)pyrimidin-4-yl)amino)phenyl) dimethylphosphine oxide]
- IC50 [1]: 10 to 100 nM
- Cell viability (% of Con. 10 μM) HS746T (HS746T cancer cells): 25 % of Con.
- Cell viability (% of Con. 10 μM) HepG2 (HepG2 cancer cells): 34 % of Con.
- IC50 [2]: 10 to 100 nM

SMILES: CP(C)(=O)c1ccccc1Nc1nc(Nc2ccc3nc(S)sc3c2)ncc1Cl [compound 23, (2-((5-Chloro-2-((2-mercaptobenzo[d]thiazol-6-yl)amino)pyrimidin-4-yl)amino)phenyl)dimethylphosphine oxide]
- IC50 [1]: 10 to 100 nM
- Cell viability (% of Con. 10 μM) HS746T (HS746T cancer cells): 26 % of Con.
- Cell viability (% of Con. 10 μM) HepG2 (HepG2 cancer cells): 27 % of Con.
- IC50 [2]: 10 to 100 nM

SMILES: Cc1cccc2sc(Nc3ncc(Cl)c(Nc4ccccc4P(C)(C)=O)n3)nc12 [compound 27, (2-((5-Chloro-2-((4-methylbenzo[d]thiazol-2-yl)amino)pyrimidin-4-yl)amino)phenyl)dimethylphosphine oxide]
- IC50 [1]: > 1000 nM
- Cell viability (% of Con. 10 μM) HS746T (HS746T cancer cells): 74 % of Con.
- Cell viability (% of Con. 10 μM) HepG2 (HepG2 cancer cells): 81 % of Con.
- IC50 [2]: 100 to 1000 nM

SMILES: CP(C)(=O)c1ccccc1Nc1ncc(Cl)c(Nc2ccccc2P(C)(C)=O)n1 [compound 30, (((5-Chloropyrimidin-2,4-diyl)bis(azanediyl))bis(2,1-phenylene)) bis(dimethylphosphineoxide)]
- IC50 [1]: > 1000 nM
- Cell viability (% of Con. 10 μM) HS746T (HS746T cancer cells): 85 % of Con.
- Cell viability (% of Con. 10 μM) HepG2 (HepG2 cancer cells): 102 % of Con.
- IC50 [2]: > 1000 nM

SMILES: CN(C)c1ncc(F)c(NC2CCN(S(C)(=O)=O)CC2)n1 [compound 37, 5-Fluoro-N^2,N^2-dimethyl-N^4-(1-(methylsulfonyl)piperidin-4-yl) pyrimidine-2,4-diamine]
- IC50 [1]: > 1000 nM
- Cell viability (% of Con. 10 μM) HS746T (HS746T cancer cells): 90 % of Con.
- Cell viability (% of Con. 10 μM) HepG2 (HepG2 cancer cells): 100 % of Con.
- IC50 [2]: > 1000 nM

SMILES: CS(=O)(=O)N1CCC(Nc2nc(Nc3ccnc4c(F)cccc34)ncc2F)CC1 [compound 38, 5-Fluoro-N^2-(8-fluoroquinolin-4-yl)-N^4-(1-(methylsulfonyl)piperidin-4-yl)pyrimidine-2,4-diamine]
- IC50 [1]: 100 to 1000 nM
- Cell viability (% of Con. 10 μM) HS746T (HS746T cancer cells): 90 % of Con.
- Cell viability (% of Con. 10 μM) HepG2 (HepG2 cancer cells): 73 % of Con.
- IC50 [2]: > 1000 nM

SMILES: CP(C)(=O)c1ccccc1Nc1nc(Nc2ccc3c(c2)C(=O)NCC3)ncc1Cl [compound 41, 7-((5-Chloro-4-((2-(dimethylphosphoryl)phenyl)amino)pyrimidin-2-yl)amino)-3,4-dihydroisoquinolin-1(2H)-one]
- IC50 [1]: 10 to 100 nM
- Cell viability (% of Con. 10 μM) HS746T (HS746T cancer cells): 33 % of Con.
- Cell viability (% of Con. 10 μM) HepG2 (HepG2 cancer cells): 26 % of Con.
- IC50 [2]: 1 to 10 nM

SMILES: CC1(C)c2cc(Nc3ncc(Cl)c(Nc4ccccc4P(C)(C)=O)n3)ccc2CCN1C(=O)C(F)(F)F [compound 42, 1-(7-((5-Chloro-4-((2-(dimethylphosphoryl)phenyl)amino)pyrimidin-2-yl)amino)-1,1-dimethyl-3,4-dihydroisoquinolin-2(1H)-yl)-2,2,2-trifluoroethan-1-one]
- IC50 [1]: 1 to 10 nM
- Cell viability (% of Con. 10 μM) HS746T (HS746T cancer cells): 30 % of Con.
- Cell viability (% of Con. 10 μM) HepG2 (HepG2 cancer cells): 48 % of Con.
- IC50 [2]: 1 to 10 nM

SMILES: CC1(C)NCCc2ccc(Nc3ncc(Cl)c(Nc4ccccc4P(C)(C)=O)n3)cc21 [compound 44, (2-((5-Chloro-2-((1,1-dimethyl-1,2,3,4-tetrahydroisoquinolin-7-yl)amino)pyrimidin-4-yl)amino)phenyl)dimethylphosphine oxide]
- IC50 [1]: 1 to 10 nM
- Cell viability (% of Con. 10 μM) HS746T (HS746T cancer cells): 17 % of Con.
- Cell viability (% of Con. 10 μM) HepG2 (HepG2 cancer cells): 53 % of Con.
- IC50 [2]: 1 to 10 nM

SMILES: CP(C)(=O)c1ccccc1Nc1nc(Nc2ccc3c(c2)CN(C(=O)C(F)(F)F)CC3)ncc1Cl [compound 46, 1-(7-((5-Chloro-4-((2-(dimethylphosphoryl)phenyl)amino)pyrimidin-2-yl)amino)-3,4-dihydroisoquinolin-2(1H)-yl)-2,2,2-trifluoroethan-1-one]
- IC50 [1]: 1 to 10 nM
- Cell viability (% of Con. 10 μM) HS746T (HS746T cancer cells): 13 % of Con.
- Cell viability (% of Con. 10 μM) HepG2 (HepG2 cancer cells): 26 % of Con.
- IC50 [2]: 1 to 10 nM

SMILES: CP(C)(=O)c1ccccc1Nc1nc(Nc2ccc3[nH]nc(-c4ccc(C=O)o4)c3c2)ncc1Cl [compound 92, 5-(5-((5-Chloro-4-((2-(dimethylphosphoryl)phenyl)amino)pyrimidin-2-yl)amino)-1H-indazol-3-yl)furan-2-carbaldehyde]
- IC50 [1]: 1 to 10 nM
- Cell viability (% of Con. 10 μM) HS746T (HS746T cancer cells): 14.1 % of Con.
- IC50 [2]: 1 to 10 nM
